Data on one compound can be found in patent US20230202982A1, “5-CHLORO-4-HYDROXY-1-METHYL-2-OXO-N-PHENYL-QUINOLINE-3-CARBOXAMIDE POTASSIUM SALT FOR TREATING INFLAMMATORY BOWEL DISEASES” (Aqilion AB, priority 2020, published 2023).

Data set [1] has as its system CD4+ adoptive transfer induced inflammatory bowel disease. Description: CD4+ adoptive transfer induced inflammatory bowel disease in mice. It counts as in vivo. As for the experimental part:
The efficacy of the 5-chloro-4-hydroxy-1-methyl-2-oxo-N-phenyl-quinoline-3-carboxamide potassium salt in inhibiting inflammation/edema associated with inflammatory bowel disease was evaluated in a CD4+ adoptive transfer induced inflammatory bowel disease in mice.
On study day -1, SCID mice were weighed and evenly distributed into treatment groups based on body weight.
On study day 0, Balb/C mice were terminated, and spleens obtained for CD4^+CD45RB^high cell isolation (Using SCID IBD Cell Separation Protocol). After cells were sorted and obtained, each animal in the treatment groups received an IP injection of CD4^+CD45RB^high cells at a minimum 4x10^5 cells (200 µl/mouse injections). A naive group of mice was followed through the experiment without receiving the injection of cells. The naive group comprised 5 animals.
On study day 21, treatment with 5-chloro-4-hydroxy-1-methyl-2-oxo-N-phenylquinoline-3-carboxamide potassium salt (1 mg/kg, daily day 21 to 49) was initiated. The compound was formulated as a 0.1 mg/mL suspension with sodium carboxymethyl cellulose (1%, w/v). Mice received either the 5-chloro-4-hydroxy-1-methyl-2-oxo-N-phenyl-quinoline-3-carboxamide potassium salt (Example compound 1) or vehicle. Each of those groups comprised 10 animals.
On study day 49, animals were anesthetized with Isoflurane and bled to exsanguination followed by cervical dislocation. The entire colon was removed, measured, and weighed. The colon was analysed for its level of interferon-γ and IL-22. The inflammation in the colons was also scored by visual and histopathological assessments.

Data set [2] is described as follows: Solubility in PBS (pH 7.4) and simulated colonic fluid, saturated solutions by HPLC-UV. Format: physicochemical. The conditions noted are these: thermodynamic from solid, saturated solution, ambient temperature. As for the experimental part: (§1) The solubility and stability at room temperature of Example compound 1 and the free acid compound 5-chloro-4-hydroxy-1-methyl-2-oxo-N-phenyl-quinoline-3-carboxamide (described in Example 1a) above) was determined in PBS (pH 7.4) and in simulated colonic fluid (SCF) at ambient temperature. The SCF was the product FaSSCof obtained from Biorelevant.com prepared according to the manufacturer’s instructions. FaSSCof contains 0.15 mM sodium cholate, 0.3 mM Phospholipids, 0.1 mM Oleate, 120 mM sodium hydroxide, 45 mM TRIS and 76 mM maleate.
(§2) Saturated solutions were prepared in these solvents and the concentrations/impurity profile was determined by HPLC-UV using a calibration curve in the range of 1 to 150 µg/ml at 300 nm or 320 nm. Visual evaluation was also performed after every step over the testing period.

Data set [3] in a line: Slurry in water for 48 hours, re-examined by XRPD (disproportionation). It counts as physicochemical. The following applies: slurry in water 20 mg / 400 uL, ambient temperature, potassium salt. The protocol:
When a sample of Example compound 1 was stored in a slurry in water at 20 mg / 400uL for 48 hours at ambient temperature, recovered, dried by evaporation and re-examined by XRPD, there was no change in the X-ray diffractogram.

A short description of data set [4]: Hygroscopicity by Dynamic Vapour Sorption (DVS). Format: physicochemical. The following applies: 25° C.; for Hygroscopicity: DVS, 0 to 90% RH, potassium salt. The protocol:
Dynamic Vapour Sorption (DVS) analysis was carried out on a sample of Example compound 1.
Approximately 20 mg of sample was placed into a wire-mesh vapour sorption balance pan and loaded into an ‘IgaSorp’ vapour sorption balance (Hiden Analytical Instruments). The sample was then dried by maintaining a 0% humidity environment until no further weight change was recorded.
The sample was then subjected to a step profile from 0 to 90% RH at 10% RH increments. The desorption isotherm was from 90% RH o 0% RH in 10% RH steps. The weight change during the sorption/desorption cycles were then monitored, allowing for the hygroscopic nature of the sample to be determined. Analysis was performed using the following parameters: • Analysis Mode F1 • Wait Time 99% • Sample Temperature 25° C. • Min Time Out 30 Mins • MaxTime Out 180 Mins • Gas Flow Rate 250 ml/min

Data set [5] is described as follows: Stability in aqueous solutions (impurity profile by HPLC-UV). Format: physicochemical. The conditions noted are these: PBS (pH 7.4) and SCF, room temperature, 48 and 72 hours. The protocol: as §1, §2
The samples were also analysed for the presence of impurities. After a period of 48 and 72 hours, all impurities were below the lower limit of quantitation.

[6] abbreviates: listed as 5-chloro-4-hydroxy-1-methyl-2-oxo-N-phenylquinoline-3-carboxamide potassium salt.

Read-outs that look alike come from different tables or passages of the source.

`Cn1c(=O)c(C(=O)Nc2ccccc2)c([O-])c2c(Cl)cccc21.[K+]` [Example compound 1, 5-chloro-4-hydroxy-1-methyl-2-oxo-N-phenyl-quinoline-3-carboxamide potassium salt]: in data set [1] (1 mg/kg daily day 21 to 49, SCID mice, vs vehicle, FIG. 4), the Body weight change entry is “less weight loss”. For the same compound, the “Colon level of inflammatory markers (interferon-γ and IL-22)” value in data set [1] (1 mg/kg daily day 21 to 49, day 49, vs vehicle, FIG. 5) is reported as “lower levels of inflammatory markers”. For the same compound, the “Colon inflammation scores (visual and histopathological)” value in data set [1] (1 mg/kg daily day 21 to 49, day 49, vs vehicle, FIG. 6) is “fewer signs of inflammation”. The “Inhibition of inflammation/edema associated with inflammatory bowel disease” value in data set [1] (CD4+ adoptive transfer model in mice, summary statement) is on record as “effective in inhibiting inflammation/edema”. Also, the solubility is 0.91 µg/mL in data set [2] (aqueous buffer, PBS (pH 7.4), read-out: Solubility in PBS (pH7.4)) and 7.99 µg/mL in data set [2] (simulated colonic fluid (FaSSCof), fassgf or other biorelevant, SCF (FaSSCof), read-out: Solubility in simulated colonic fluid (SCF)). Also, the entries for the “Stability in water slurry: change in X-ray diffractogram” value in data set [3] (setting [6]) and in data set [3] were “stable when in a slurry” and “no change”, respectively. For the same compound, the Hygroscopicity entry is reported as “not hygroscopic” in data set [4] (setting [6]) and “non-hygroscopic” in data set [4]. The “Reversible weight gain (DVS)” value in data set [4] (analysed to 80% RH) is “less than 0.2%”. For the same compound, the “Stability in aqueous solution (impurities)” value in data set [5] is given as “stable in aqueous solution”.

Broadly, the solubility is the concentration that dissolves in the medium under given conditions.
